We go through two compounds from patent US20250170176A1, “METHODS OF TREATMENT WITH CAR CELLS IN COMBINATION WITH S1P RECEPTOR MODULATORS” (PRIOTHERA SAS, priority 2022, published 2025).

Assay [1] deals with absolute lymphocyte counts. The settings on record: healthy volunteers; multiple dose applications for 28 days; cited from earlier work.
Assay [2] relates to CAR-T cells. Description: CAR-T cell activation markers by flow cytometry in leukemia mice (Example 1). Format: in vivo, mouse (C57BL/6J). The following applies: KRP203 administered from day −1. An excerpt:
6 to 8-week-old C57BL/6J male mice were obtained from Envigo. Ubi-GFP RAG1−/−OT-I TCR mice were bred and crossed in our animal facility under specific pathogen-free conditions. All experiments were approved by Institut Pasteur's Safety Committee in accordance with French and European guidelines (CETEA 2017-0038). Immortalized pro-B cells were generated by infecting bone marrow cells with a retrovirus encoding viral-Abelson kinase (v-abl). This tumor cell line was then retrovirally transduced to express a fluorescence resonance energy transfer (FRET)-based reporter for caspase 3 activity. Mice were examined every day and sacrificed in case of prostration, tousled hair, weakness or nodal tumor mass >1 cm. Cells were cultured in RPMI medium 1640-GlutaMAX™ supplemented with 10% heat-inactivated fetal bovine serum, 50 U·mL-1 penicillin, 50 μg·mL-1 streptomycin, 1 mM sodium pyruvate, 10 mM HEPES and 50 μM 2-mercaptoethanol, and maintained at 37° C. and 5% CO2. Cells were routinely tested for the absence of Mycoplasma contamination (Venor-GeM Advance mycoplasma detection kit, Minerva Biolabs). […]
For ex vivo analysis, bone marrow cells were isolated by flushing femurs and tibias from tumor-bearing mice and subsequent filtering through 70 μm cell strainers. […] Analyses were performed using a Cytoflex LX (Beckman Coulter) flow cytometer and analyzed with FlowJo v10.8.0 (BD). […]
(In general: Flow cytometry measures light scatter and fluorescence of single cells or particles in a stream.)

The subject of assay [3] is CAR-T cells. Nature of the assay: Absolute numbers of CAR-T cells in blood (Example 3). Format: in vivo, mouse (NCG). The following applies: mocravimod with CAR-T cells. The procedure:
(§1) To determine the kinetics of cytokine secretion and to evaluate the effectiveness of mocravimod in reducing the level of circulating cytokines when administered in combination with CAR T cells, NOD CRISPR Prkdc 112r Gamma (NCG) mice were injected i.v. with 5×10^6 JEKO-1-luc-GFP tumor cells. Treatment with either mocravimod or vehicle started on day 6 after tumor cell engraftment. Mocravimod (3 mg/kg) was administered every second day. 0.75×10^6 CAR T cells were injected i.v. on day 7 after tumor cell engraftment. Mice were bled 24 h, 48 h, 72 h, 96 h and 120 h post CAR T cell injection and plasma was collected. Interferon-g (IFN-g), Tumor necrosis factor-a (TNF-α) and Interleukin-2 (IL-2) were analyzed in plasma samples using the BD CBA Human Th1/Th2/Th17 cytokine assay. CAR T cells were phenotyped and enumerated in blood.
The same protocol as example 1 has been conducted for the method of analyzing CAR-T cells in bone marrow and the same protocol as the cytokine assay has been conducted for the method of analyzing CAR-T cells in blood.

Assay [4] relates to IFN-g, TNF-α and IL-2. Description: Kinetics of plasma cytokines (BD CBA Human Th1/Th2/Th17) in JEKO-1 bearing NCG mice given CAR T cells (Example 3). It counts as in vivo, mouse (NCG). The settings on record: 5 days after CAR-T cells; mocravimod 3 mg/kg every second day from day 6. As to the method: as §1

With `CCc1cc(/C(C)=N/OCc2ccc(C3CCCCC3)c(C(F)(F)F)c2)ccc1CN1CC(C(=O)O)C1` [BAF312], the “Recovery of absolute lymphocyte counts to 80% of normal counts reached after” value in assay [1] was 7 days.

As to `NC(CO)(CO)CCc1ccc(Sc2cccc(OCc3ccccc3)c2)cc1Cl` [mocravimod, 2-amino-2-[4-(3-benzyloxyphenylthio)-2-chlorophenyl]ethyl-propane-1,3-diol], the “percentage of activation of CAR-T cells in lymph nodes, increase in comparison to the control” value in assay [2] is on record as 2-3 times. Further, the “absolute number of CAR-T cells in blood” value is reported as “around 500” in assay [3] (day 1 after CAR-T injection), “around 500” in assay [3] (day 3 after CAR-T injection) and “around 100” in assay [3] (day 5 after CAR-T injection). Further, the “level of IFN-g in blood (plasma)” value in assay [4] is listed as “around 100 μg/mL”. The “level of IL-2 in blood (plasma)” value in assay [4] is “around 2 μg/mL”. Further, the “level of TNFa in blood (plasma)” value in assay [4] is reported as “around 0 μg/mL”.
